Active and inactive are the calls of the source. The rule behind the calls is not given here.
Test system: CCRIS mutagenicity, Ames/micronucleus/aberration tests
Assay: CCRIS mutagenicity studies
Description: The CCRIS database contains chemical records with carcinogenicity, mutagenicity, tumor promotion, and tumor inhibition test results. It was developed by the National Cancer Institute (NCI). Data are derived from studies cited in primary journals, current awareness tools, NCI reports, and other sources. Test results have been reviewed by experts in carcinogenesis and mutagenesis.
CCRIS provides historical information from the years 1985 - 2011. It is no longer updated.
This is an archive assay for CCRIS mutagenicity studies.

[1] = Test System: AMES SALMONELLA TYPHIMURIUM, Strain/Indicator: TA98, Metabolic Activation: NONE, Method: PREINCUBATION
[2] = Test System: AMES SALMONELLA TYPHIMURIUM, Strain/Indicator: TA100, Metabolic Activation: NONE, Method: PREINCUBATION
[3] = Test System: AMES SALMONELLA TYPHIMURIUM, Strain/Indicator: TA98, Metabolic Activation: NONE, Method: STANDARD PLATE
[4] = Test System: AMES SALMONELLA TYPHIMURIUM, Strain/Indicator: TA100, Metabolic Activation: NONE, Method: STANDARD PLATE
[5] = Test System: AMES SALMONELLA TYPHIMURIUM, Strain/Indicator: TA98, Metabolic Activation: RAT, LIVER, S-9, AROCLOR 1254, Method: STANDARD PLATE
[6] = Test System: AMES SALMONELLA TYPHIMURIUM, Strain/Indicator: TA100, Metabolic Activation: RAT, LIVER, S-9, AROCLOR 1254, Method: STANDARD PLATE
[7] = Test System: AMES SALMONELLA TYPHIMURIUM, Strain/Indicator: TA1535, Metabolic Activation: NONE, Method: STANDARD PLATE
[8] = Test System: AMES SALMONELLA TYPHIMURIUM, Strain/Indicator: TA1535, Metabolic Activation: RAT, LIVER, S-9, AROCLOR 1254, Method: STANDARD PLATE
[9] = Test System: AMES SALMONELLA TYPHIMURIUM, Strain/Indicator: TA1537, Metabolic Activation: NONE, Method: STANDARD PLATE
[10] = Test System: AMES SALMONELLA TYPHIMURIUM, Strain/Indicator: TA1537, Metabolic Activation: RAT, LIVER, S-9, AROCLOR 1254, Method: STANDARD PLATE
[11] = Test System: AMES SALMONELLA TYPHIMURIUM, Strain/Indicator: TA1538, Metabolic Activation: NONE, Method: STANDARD PLATE
[12] = Test System: AMES SALMONELLA TYPHIMURIUM, Strain/Indicator: TA1538, Metabolic Activation: RAT, LIVER, S-9, AROCLOR 1254, Method: STANDARD PLATE

[O-][n+]1cc2cnccc2cn1
mutagenic call [1]: active; positive
mutagenic call (Test System: AMES SALMONELLA TYPHIMURIUM, Strain/Indicator: TA98, Metabolic Activation: RAT, LIVER, S-9, PCB, Method: PREINCUBATION): active; positive
mutagenic call [2]: inactive; negative
mutagenic call (Test System: AMES SALMONELLA TYPHIMURIUM, Strain/Indicator: TA100, Metabolic Activation: RAT, LIVER, S-9, PCB, Method: PREINCUBATION): inactive; negative

Cc1ccc(NC(=O)N(C)C)cc1Cl
mutagenic call (Test System: AMES SALMONELLA TYPHIMURIUM, Strain/Indicator: TA98, Metabolic Activation: IMMATURE CARP LIVER S-9, 3-METHYLCHOLANTHRENE, Method: STANDARD PLATE): inactive; negative
mutagenic call [3]: inactive; negative
mutagenic call (Test System: AMES SALMONELLA TYPHIMURIUM, Strain/Indicator: TA100, Metabolic Activation: IMMATURE CARP LIVER S-9, 3-METHYLCHOLANTHRENE, Method: STANDARD PLATE): inactive; negative
mutagenic call [4]: inactive; negative

Nc1cc([N+](=O)[O-])c(N)cc1F
mutagenic call [3]: active; positive
mutagenic call [5]: active; positive
mutagenic call [4]: inactive; negative
mutagenic call [6]: active; positive
mutagenic call [7]: inactive; negative
mutagenic call [8]: inactive; negative
mutagenic call [9]: active; positive
mutagenic call [10]: active; positive
mutagenic call [11]: active; positive
mutagenic call [12]: active; positive

CC1=CC=C(C(C)C)CC1
mutagenic call (Test System: AMES SALMONELLA TYPHIMURIUM, Strain/Indicator: TA97A, Metabolic Activation: NONE, Method: STANDARD PLATE): inactive; negative
mutagenic call (Test System: AMES SALMONELLA TYPHIMURIUM, Strain/Indicator: TA97A, Metabolic Activation: RAT, LIVER, S-9, AROCLOR 1254, Method: STANDARD PLATE): inactive; negative
mutagenic call [3]: inactive; negative
mutagenic call [5]: inactive; negative
mutagenic call [4]: inactive; negative
mutagenic call [6]: inactive; negative
mutagenic call [7]: inactive; negative
mutagenic call [8]: inactive; negative

C[N+]1(C)CCOCC1
mutagenic call (Test System: AMES SALMONELLA TYPHIMURIUM, Strain/Indicator: TA97, Metabolic Activation: NONE, Method: STANDARD PLATE): inactive; negative
mutagenic call (Test System: AMES SALMONELLA TYPHIMURIUM, Strain/Indicator: TA97, Metabolic Activation: RAT, LIVER, S-9, AROCLOR 1254, Method: STANDARD PLATE): inactive; negative
mutagenic call [3]: inactive; negative
mutagenic call [5]: inactive; negative
mutagenic call [4]: inactive; negative
mutagenic call [6]: inactive; negative
mutagenic call (Test System: AMES SALMONELLA TYPHIMURIUM, Strain/Indicator: TA102, Metabolic Activation: NONE, Method: STANDARD PLATE): inactive; negative
mutagenic call (Test System: AMES SALMONELLA TYPHIMURIUM, Strain/Indicator: TA102, Metabolic Activation: RAT, LIVER, S-9, AROCLOR 1254, Method: STANDARD PLATE): inactive; negative
mutagenic call (Test System: AMES SALMONELLA TYPHIMURIUM, Strain/Indicator: TA104, Metabolic Activation: NONE, Method: STANDARD PLATE): inactive; negative
mutagenic call (Test System: AMES SALMONELLA TYPHIMURIUM, Strain/Indicator: TA104, Metabolic Activation: RAT, LIVER, S-9, AROCLOR 1254, Method: STANDARD PLATE): inactive; negative
mutagenic call [7]: inactive; negative
mutagenic call [8]: inactive; negative
mutagenic call [9]: inactive; negative
mutagenic call [10]: inactive; negative
mutagenic call [11]: inactive; negative
mutagenic call [12]: inactive; negative

CC(=O)Nc1ccc2ccc3c(O)ccc4ccc1c2c43
mutagenic call (Test System: AMES SALMONELLA TYPHIMURIUM, Strain/Indicator: TA98(1,8-DNP6), Metabolic Activation: NONE, Method: STANDARD PLATE): inactive; negative
mutagenic call (Test System: AMES SALMONELLA TYPHIMURIUM, Strain/Indicator: TA98(1,8-DNP6), Metabolic Activation: RAT, LIVER, S-9, AROCLOR 1254, Method: STANDARD PLATE): inactive; negative
mutagenic call [5]: active; positive
mutagenic call (Test System: AMES SALMONELLA TYPHIMURIUM, Strain/Indicator: YG1024, Metabolic Activation: NONE, Method: STANDARD PLATE): inactive; negative
mutagenic call (Test System: AMES SALMONELLA TYPHIMURIUM, Strain/Indicator: YG1024, Metabolic Activation: RAT, LIVER, S-9, AROCLOR 1254, Method: STANDARD PLATE): active; positive

Clc1ccc(C(c2ccc(Cl)cc2)C(Cl)(Cl)Cl)cc1
mutagenic call (Test System: AMES SALMONELLA TYPHIMURIUM, Strain/Indicator: TA97, Metabolic Activation: HAMSTER, LIVER, S-9, AROCLOR 1254 (10 OR 30%), Method: PREINCUBATION): inactive; negative
mutagenic call (Test System: AMES SALMONELLA TYPHIMURIUM, Strain/Indicator: TA97, Metabolic Activation: NONE, Method: PREINCUBATION): inactive; negative
mutagenic call (Test System: AMES SALMONELLA TYPHIMURIUM, Strain/Indicator: TA97, Metabolic Activation: RAT, LIVER, S-9, AROCLOR 1254 (10 OR 30%), Method: PREINCUBATION): inactive; negative
mutagenic call (Test System: AMES SALMONELLA TYPHIMURIUM, Strain/Indicator: TA98, Metabolic Activation: HAMSTER, LIVER, S-9, AROCLOR 1254 (10 OR 30%), Method: PREINCUBATION): inactive; negative
mutagenic call [1]: inactive; negative
mutagenic call (Test System: AMES SALMONELLA TYPHIMURIUM, Strain/Indicator: TA98, Metabolic Activation: RAT, LIVER, S-9, AROCLOR 1254 (10 OR 30%), Method: PREINCUBATION): inactive; negative
mutagenic call (Test System: AMES SALMONELLA TYPHIMURIUM, Strain/Indicator: TA100, Metabolic Activation: HAMSTER, LIVER, S-9, AROCLOR 1254 (10 OR 30%), Method: PREINCUBATION): inactive; negative
mutagenic call [2]: inactive; negative
mutagenic call (Test System: AMES SALMONELLA TYPHIMURIUM, Strain/Indicator: TA100, Metabolic Activation: RAT, LIVER, S-9, AROCLOR 1254 (10 OR 30%), Method: PREINCUBATION): inactive; negative
mutagenic call (Test System: AMES SALMONELLA TYPHIMURIUM, Strain/Indicator: TA1535, Metabolic Activation: HAMSTER, LIVER, S-9, AROCLOR 1254 (10 OR 30%), Method: PREINCUBATION): inactive; negative
mutagenic call (Test System: AMES SALMONELLA TYPHIMURIUM, Strain/Indicator: TA1535, Metabolic Activation: NONE, Method: PREINCUBATION): inactive; negative
mutagenic call (Test System: AMES SALMONELLA TYPHIMURIUM, Strain/Indicator: TA1535, Metabolic Activation: RAT, LIVER, S-9, AROCLOR 1254 (10 OR 30%), Method: PREINCUBATION): inactive; negative
mutagenic call (Test System: AMES SALMONELLA TYPHIMURIUM, Strain/Indicator: TA1537, Metabolic Activation: HAMSTER, LIVER, S-9, AROCLOR 1254 (30%), Method: PREINCUBATION): inactive; negative
mutagenic call (Test System: AMES SALMONELLA TYPHIMURIUM, Strain/Indicator: TA1537, Metabolic Activation: NONE, Method: PREINCUBATION): inactive; negative
mutagenic call (Test System: AMES SALMONELLA TYPHIMURIUM, Strain/Indicator: TA1537, Metabolic Activation: RAT, LIVER, S-9, AROCLOR 1254 (30%), Method: PREINCUBATION): inactive; negative
mutagenic call (Test System: CHINESE HAMSTER V-79, Strain/Indicator: V-79/8-AZAGUANINE, Metabolic Activation: NONE, Method: STANDARD PLATE): active; positive

— PubChem BioAssay AID1259407 (Chemical Carcinogenesis Research Information System (CCRIS), 2018)
